In patent US20240417359A1, “PRECURSORS OF PHENOLIC FRAGRANT COMPOUNDS” (GIVAUDAN SA, priority 2021, published 2024):

Experiments:
[1] = Washtest with liquid detergent and sensory evaluation of fabric by expert panel; conditions: Table 3; for odour intensity, 1 day: dry fabric 1 day; for odour intensity, 1 day / odour intensity, 4 days / odour intensity, wet: scale 0 to 5; for odour intensity, 4 days: dry fabric 4 days; for odour intensity, wet / odour on dry fabric: heavy duty liquid detergent washtest; for odour intensity, wet: wet fabric
Protocol: The wet and line-dried fabric (1 and 4 days) was assessed by a panel of 4-6 experts with regard to odour intensity and quality. The odour intensity was recorded on an intensity scale of 0 (odourless) to 5 (extremely strong).
The odour intensity was recorded on an intensity scale of 0 (odorless) to 5 (extremely strong).
Heavy duty liquid detergent samples were prepared and used in washtests and subsequent sensory evaluation of the washed and dried fabric as described in Example 60a and c. The odour intensity was recorded on an intensity scale of 0 (odourless) to 5 (extremely strong).

[2] = Odour description on paper blotter; conditions: 1% solution in EtOH on paper blotter, 24 h
[3] = Application in shampoo base: sensory evaluation of washed hair swatches by expert panel; parameters: species or system human; conditions: Table 4; for odour intensity, wet: 0.2% by weight in shampoo base, wet hair swatch, scale 0 (odourless) to 5 (extremely strong); for odour intensity, 1 day: dried hair swatch 1 day; for odour intensity, 1 day / odour intensity, 3 days: scale 0 to 5; for odour intensity, 3 days: dried hair swatch 3 days
Protocol: Odour-neutral human hair swatches were wetted with warm tap water and lathered delicately with 2 mL of the above hair shampoo samples for 30 sec by hand wearing gloves. The lathered hair swatches were left in a plastic bowl for 2 min, then rinsed under running tap water for 20 sec. After removing excess water by squeezing the hair swatches between two fingers, they were left to dry in open air. The wet and dried hair swatches (1 and 3 days) were assessed by a panel of 4-6 experts with regard to odour intensity and quality. The odour intensity was recorded on an intensity scale of 0 (odourless) to 5 (extremely strong).

| SMILES | Odour description [2] | further results |
| --- | --- | --- |
| C=CCc1ccc(OC(CC=C)CCCCCCCCC)c(OC)c1 (stereo not shown) [4-allyl-2-methoxy-1-(tridec-1-en-4-yloxy)benzene] | – | odour intensity, 1 day [1]: 2.1; odour intensity, 4 days [1]: 2.7; odour intensity, wet [1]: 2.1 |
| C=CCC(CC/C=C\CC)Oc1ccc(C=O)cc1OCC (stereo not shown) [Example 12, (Z)-4-(deca-1,7-dien-4-yloxy)-3-ethoxybenzaldehyde] | powdery (vanilla) | odour intensity, 1 day [1]: 3.0; odour intensity, 4 days [1]: 3.7; odour intensity, wet [1]: 0.4 |
| C=CCC(CCCCCCCCC)Oc1ccc(CCC(C)=O)cc1 (stereo not shown) [Example 36, 4-(4-(tridec-1-en-4-yloxy)phenyl)butan-2-one] | fruity, juicy, raspberry, aldehydic, green, metallic | odour intensity, wet [3]: 2.3; odour intensity, 1 day [3]: 1.9; odour intensity, 3 days [3]: 1.6 |
| C=CCC(CCCCCCCCCC)Oc1ccc(C=O)cc1OC (stereo not shown) [Example 38, 3-methoxy-4-(tetradec-1-en-4-yloxy)benzaldehyde] | powdery, vanilla, creamy, aldehydic, mandarin, madeleine | odour intensity, 1 day [1]: 3.0; odour intensity, 4 days [1]: 3.2; odour on dry fabric [1]: madeleine; odour intensity, wet [1]: 2.2 |
| CCOc1cc(C=O)ccc1OCCC=C(C)c1ccc(OC)cc1 [Example 49, 3-ethoxy-4-((4-(4-methoxyphenyl)pent-3-en-1-yl)oxy)benzaldehyde] | sweet, powdery, vanilla, ice cream, soft anisic, heliotropine, anethiol | – |
| CCOc1cc(C=O)ccc1OCCC=C(C)Cc1ccccc1 [Example 50, 3-ethoxy-4-((4-methyl-5-phenylpent-3-en-1-yl)oxy)benzaldehyde] | powdery, vanilla, ice cream | – |
| CCOc1cc(C=O)ccc1OCC/C=C(\C)c1ccc2ccccc2c1 [Example 51, (E)-3-ethoxy-4-((4-(naphthalen-2-yl)pent-3-en-1-yl)oxy)benzaldehyde] | powdery, vanilla, ice cream, floral, neroli, orange flower, baby cologne, madeleine, fougassette | – |
| CC(=O)CCc1ccc(OCCC=C(C)CCc2ccccc2)cc1 [Example 52, 4-(4-((4-methyl-6-phenylhex-3-en-1-yl)oxy)phenyl)butan-2-one] | sweet, crystal sugar, fruity, raspberry | odour intensity, 1 day [1]: 2.9; odour intensity, 4 days [1]: 3.3; odour on dry fabric [1]: raspberry, sweet; odour intensity, wet [1]: 1.6 |
| COc1ccc(C(C)=CCCOc2ccc(CCC(C)=O)cc2)cc1 [Example 53, 4-(4-((4-(4-methoxyphenyl)pent-3-en-1-yl)oxy)phenyl)butan-2-one] | sweet powdery, anisic aldehyde, fruity, raspberry ketone | – |
| CCOc1cc(C=O)ccc1OCCC=C(C)CCc1ccc(OC)cc1 [Example 54, 3-ethoxy-4-((6-(4-methoxyphenyl)-4-methylhex-3-en-1-yl)oxy)benzaldehyde] | powdery, vanilla | – |
| COc1ccc(CCC(C)=CCCOc2ccc(CCC(C)=O)cc2)cc1 [Example 55, 4-(4-((6-(4-methoxyphenyl)-4-methylhex-3-en-1-yl)oxy)phenyl)butan-2-one] | sweet, fruity, raspberry | odour intensity, wet [3]: 1.1; odour intensity, 1 day [3]: 2.8; odour intensity, 3 days [3]: 3.0 |
| COC(=O)c1ccccc1OCCC=C(C)CCc1ccccc1 [Example 56, methyl 2-((4-methyl-6-phenylhex-3-en-1-yl)oxy)benzoate] | wintergreen, salicylate, slightly powdery, vanilla | – |
| CCC(=O)c1ccccc1OCCC=C(C)CCc1ccccc1 [Example 57, 1-(2-((4-methyl-6-phenylhex-3-en-1-yl)oxy)phenyl)propan-1-one] | wintergreen, salicylate, slightly powdery, vanilla | – |
| CCOc1cc(C=O)ccc1OCCC=C(C)CCCc1ccccc1 [Example 58, 3-ethoxy-4-((4-methyl-7-phenylhept-3-en-1-yl)oxy)benzaldehyde] | powdery, vanilla, creamy, chocolate | – |
| CC(=O)CCc1ccc(OCCC=C(C)CCCc2ccccc2)cc1 [Example 59, 4-(4-((4-methyl-7-phenylhept-3-en-1-yl)oxy)phenyl)butan-2-one] | powdery fruity, raspberry | – |
| CCOc1cc(C=O)ccc1OCCC=C(C)CCC=C(C)C [Example 60, 4-((4,8-dimethylnona-3,7-dien-1-yl)oxy)-3-ethoxybenzaldehyde] | gourmand (vanilla, rhum, vanilla bean) sweet (vanilla) | – |
| C=CCc1ccc(OCCC=C(C)CCC=C(C)C)c(OC)c1 [Example 61, 4-allyl-1-((4,8-dimethylnona-3,7-dien-1-yl)oxy)-2-methoxybenzene] | spicy | – |
| COC(=O)c1c(C)cc(OCC/C=C(\C)CCC=C(C)C)c(C)c1O [Example 62, methyl (E)-4-((4,8-dimethylnona-3,7-dien-1-yl)oxy)-2-hydroxy-3,6-dimethylbenzoate] | powdery (mossy) | – |

| SMILES | Odour description [2] | further results |
| --- | --- | --- |
| CCOc1cc(C=O)ccc1OC(C)C(C)/C=C/C1CC=C(C)C1(C)C (stereo not shown) [Example 63, (E)-3-ethoxy-4-((3-methyl-5-(2,2,3-trimethylcyclopent-3-en-1-yl)pent-4-en-2-yl)oxy)benzaldehyde] | woody, sandalwoody, hay | – |
| CCCCC/C=C\CCOc1ccc(C=O)cc1OCC [Example 64, (Z)-3-ethoxy-4-(non-3-en-1-yloxy)benzaldehyde] | vanilla (powdery, spicy, creamy) | – |
| CCOc1cc(C)ccc1OCCC=C(C)CCC=C(C)CCC=C(C)C [Example 65, 2-ethoxy-4-methyl-1-((4,8,12-trimethyltrideca-3,7,11-trien-1-yl)oxy)benzene] | phenolic (medicinal, ultravanil, balsamic vanilla bean, cough syrup) | – |
| COC(=O)c1c(C)cc(OCCC=C(C)CCC=C(C)CCC=C(C)C)c(C)c1O [Example 66, methyl 2-hydroxy-3,6-dimethyl-4-((4,8,12-trimethyltrideca-3,7,11-trien-1-yl)oxy)benzoate] | powdery mossy (evernyl) | – |
| C=CCC(Oc1ccc(C=O)cc1OCC)c1ccccc1 (stereo not shown) [Example 68, 3-ethoxy-4-((1-phenylbut-3-en-1-yl)oxy)benzaldehyde] | powdery (vanilla), green | – |
| C=CCC(CC/C=C\CC)Oc1cc(C)c(C(=O)OC)c(O)c1C (stereo not shown) [Example 69, methyl (Z)-4-(deca-1,7-dien-4-yloxy)-2-hydroxy-3,6-dimethylbenzoate] | powdery green marine (evernyl) | odour intensity, 1 day [1]: 1.9; odour intensity, 4 days [1]: 2.5; odour on dry fabric [1]: mossy, woody; odour intensity, wet [1]: 0.5 |
| CC/C=C\CCCC/C=C/CCOc1ccc(C=O)cc1OCC [Example 76, 4-(((3E,9Z)-dodeca-3,9-dien-1-yl)oxy)-3-ethoxybenzaldehyde] | green, melon, powdery, vanilla | – |
| CC/C=C\CCCC/C=C/CCOc1cc(C)c(C(=O)OC)c(O)c1C [Example 77, methyl 4-(((3E,9Z)-dodeca-3,9-dien-1-yl)oxy)-2-hydroxy-3,6-dimethylbenzoate] | powdery, oakmoss | – |
| C=CCC(CCC=CCC)Oc1ccc(C=O)cc1OCC (stereo not shown) [Example 78, 4-(deca-1,7-dien-4-yloxy)-3-ethoxybenzaldehyde] | powdery, vanilla | – |
| CCOc1cc(C=O)ccc1OCCC=C(C)CCc1ccc2c(c1)OCO2 [Example 79, 4-((6-(benzo[d][1,3]dioxol-5-yl)-4-methylhex-3-en-1-yl)oxy)-3-ethoxybenzaldehyde] | sweet powdery, creamy, vanilla, vanitrope | – |
| CC(=O)CCc1ccc(OCCC=C(C)CCc2ccc3c(c2)OCO3)cc1 [Example 80, 4-(4-((6-(benzo[d][1,3]dioxol-5-yl)-4-methylhex-3-en-1-yl)oxy)phenyl)butan-2-one] | fruity, raspberry, grenadine, berryflor, fresh, transparent | – |
| CC(=O)CCc1ccc(OCCC=C(C)CCC2=C(C)CCCC2(C)C)cc1 [Example 82, 4-(4-((4-methyl-6-(2,6,6-trimethylcyclohex-1-en-1-yl)hex-3-en-1-yl)oxy)phenyl)butan-2-one] | fruity, sweet, powdery, raspberry ketone | – |
| CCOc1cc(C=O)ccc1OCCC=CCCc1ccccc1 [Example 85, 3-ethoxy-4-((6-phenylhex-3-en-1-yl)oxy)benzaldehyde] | powdery, vanilla, creamy, balsamic, cinnamic | – |
| CCOc1cc(C=O)ccc1OCCC=CCCc1ccc(CC(C)C)cc1 [Example 86, 3-ethoxy-4-((6-(4-isobutylphenyl)hex-3-en-1-yl)oxy)benzaldehyde] | powdery, vanilla, creamy, floral, muguet | – |
| CCOc1cc(C=O)ccc1OCCC=C(C)C1CCCC1 [Example 88, 4-((4-cyclopentylpent-3-en-1-yl)oxy)-3-ethoxybenzaldehyde] | powdery, creamy, vanilla | – |
| CCCCCCC(C)=CCCOc1ccc(C=O)cc1OCC [Example 89, 3-ethoxy-4-((4-methyldec-3-en-1-yl)oxy)benzaldehyde] | powdery, vanilla, creamy | – |
| C=CCC(CCCCCCCCC)Oc1ccc(C=O)cc1OCC (stereo not shown) [Example 91, 3-ethoxy-4-(tridec-1-en-4-yloxy)benzaldehyde] | powdery, vanilla, aldehydic, fruity, mandarin | – |
